Measurements published in US4443459A, “α-Tocopheryl ester of 5-substituted picolinic acid and hypotensive composition containing it” (Banyu Pharmaceutical Co., Ltd., priority 1981, dated 1984).
Like-named read-outs stand apart in the source and are kept apart here. Each block holds one molecule with its values, some of them ahead of it.

What was measured:
[1] = system: Spontaneous hypertensive rats; experiment: Maximum blood pressure lowering rate, oral (Table 4); format: in vivo; conditions: Rattus norvegicus, 0.01 mmol/kg oral
Text: (§1) The following Tables 4 and 5 summarize the maximum blood pressure lowering rates and the acute toxicity values (LD50 values) of other typical examples of the compound of formula (I).
In Table 4, 0.01 mmol/kg of each compound was orally administered to spontareous hypertensive rats.

[2] = Acute toxicity LD50, intraperitoneal (Table 5); conditions: mouse, in vivo, ip
Text: as §1
In Table 5, each compound was intraperitoneally administered to mice.

[3] = system: Spontaneous hypertensive rats; experiment: Hypotensive action in spontaneous hypertensive rats, oral (tail artery pressure, plethysmography; Table 1); format: in vivo, rat (spontaneous hypertensive, male)
Text: (§2) dl-α-tocopheryl 5-butylpicolinate and dl-α-tocopherol were used after they were each dissolved in a suitable amount of ethyl ether, mixed with a solution containing 2% of Tween 80 and 2% of Span 40 and after removing ethyl ether, uniformly emulsified. 5-Butylpicolinic acid was used as a solution in 2% Tween 80+2% Span.
(§3) Spontaneous hypertensive rats (male, body weight 350 to 370 g) and Wistar rats with a normal blood pressure level (female, body weight 250 to270 g), three per group, were used. Without anesthesia, the pressure of the tail artery was measured by plethysmography.

[4] = system: Normotensive Wistar rats; experiment: Hypotensive action in normotensive Wistar rats, oral (tail artery pressure, plethysmography; Table 2); format: in vivo, rat (Wistar, female)
Text: as §2, §3

[5] = in vivo; conditions: mouse, mice
Method: (§4) ddY-Strain female mice (body weight about 20 g), five per group, were used and each of the test compounds was orally or intraperitoneally administered, and two days after the administration, the number of dead mice was counted. From it, the acute toxicity LD50 of each of the compounds was determined by the Behrens-Kraerber method.

[6] = system: ddY-Strain female mice; experiment: in vivo; conditions: mouse, 4000 mg/kg
Method: as §4

[7] = target: T1, dopamine β-hydroxylase (Bos taurus, UniProt P15101); experiment: 50% dopamine β-hydroxylase inhibitory concentration; format: biochemical
T1 sequence (P15101 1-610): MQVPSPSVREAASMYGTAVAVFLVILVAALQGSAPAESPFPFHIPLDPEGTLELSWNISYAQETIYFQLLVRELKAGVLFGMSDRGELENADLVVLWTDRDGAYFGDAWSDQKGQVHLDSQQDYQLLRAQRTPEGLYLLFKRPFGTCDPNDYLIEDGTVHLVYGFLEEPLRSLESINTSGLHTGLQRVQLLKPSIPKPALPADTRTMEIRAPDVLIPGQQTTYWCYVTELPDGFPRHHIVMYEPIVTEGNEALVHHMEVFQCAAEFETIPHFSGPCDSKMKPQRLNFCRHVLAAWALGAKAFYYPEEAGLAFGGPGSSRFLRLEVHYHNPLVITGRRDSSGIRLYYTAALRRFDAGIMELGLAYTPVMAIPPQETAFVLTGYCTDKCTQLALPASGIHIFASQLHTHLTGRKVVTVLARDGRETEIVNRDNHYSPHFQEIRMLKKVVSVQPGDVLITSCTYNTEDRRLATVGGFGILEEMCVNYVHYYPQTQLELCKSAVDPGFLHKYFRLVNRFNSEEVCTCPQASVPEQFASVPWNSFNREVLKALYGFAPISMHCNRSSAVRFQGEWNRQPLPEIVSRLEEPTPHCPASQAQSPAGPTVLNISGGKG

[8] = corresponding acid, read-out: Maximum blood pressure lowering rate (%) of the 5-substituted picolinic acid
[9] = read-out: LD50 of the 5-substituted picolinic acid
[10] = ester of formula (I), read-out: Maximum blood pressure lowering rate (%) of the compound of the invention
[11] = read-out: LD50 of the compound of the invention
[12] = 9.375 mg/kg oral, spontaneous hypertensive rats
[13] = 37.5 mg/kg oral, spontaneous hypertensive rats
[14] = intraperitoneal, mice, corresponding acid, read-out: LD50 of the 5-substituted picolinic acid

Structure (SMILES): O=C(O)c1ccc(CCCCCl)cn1 [reference compound]
inhibition in vivo at 10 µmol/kg [1, 8]: 46%
LD50 [2, 9]: 44 mg/kg

Structure (SMILES): Cc1c(C)c2c(c(C)c1OC(=O)c1ccc(Cc3ccccc3)cn1)CCC(C)(CCCC(C)CCCC(C)CCCC(C)C)O2 (racemic) [Example 9, dl-α-tocopheryl 5-benzylpicolinate]
inhibition in vivo at 10 µmol/kg [1, 10]: 41%
LD50 [2, 11]: > 4000 mg/kg

Structure (SMILES): CCCCc1ccc(C(=O)Oc2c(C)c(C)c3c(c2C)CCC(C)(CCCC(C)CCCC(C)CCCC(C)C)O3)nc1 (racemic) [Example 1, dl-α-tocopheryl 5-butylpicolinate]
Blood pressure lowering rate, 1h [3, 12]: 20.3%
Blood pressure lowering rate, 2h [3, 12]: 3.2%
Blood pressure lowering rate, 3h [3, 12]: 0%
Blood pressure lowering rate, 4h [3, 12]: 0%
Blood pressure lowering rate, 1h [3, 13]: 29.0%
Blood pressure lowering rate, 2h [3, 13]: 18.3%
Blood pressure lowering rate, 3h [3, 13]: 13.0%
Blood pressure lowering rate, 4h [3, 13]: 0%
selectivity of hypotensive action for hypertension (in words) ([3]; conclusion from hypertensive vs normotensive rats): more selective for hypertension than 5-butylpicolinic acid
hypotensive action (in words) ([3]; spontaneous hypertensive rats, oral, vs 5-butylpicolinic acid or its mixture with dl-α-tocopherol): strong hypotensive action on spontaneous hypertensive rats substantially equivalent to 5-butylpicolinicacid or a mixture of it with dl-α-tocopherol
Blood pressure lowering rate, 1h ([4]; 150 mg/kg oral, 1h, normotensive Wistar rats): 2.4%
Blood pressure lowering rate, 2h ([4]; 150 mg/kg oral, 2h, normotensive Wistar rats): 18.3%
Blood pressure lowering rate, 3h ([4]; 150 mg/kg oral, 3h, normotensive Wistar rats): 8.7%
Blood pressure lowering rate, 4h ([4]; 150 mg/kg oral, 4h, normotensive Wistar rats): 0%
blood pressure lowering effect (in words) ([4]; normotensive rats, oral, vs 5-butylpicolinic acid): weaker both in strength and duration than that of 5-butylpicolinic acid
LD50 at 48 h ([5]; ip, acute toxicity LD50, intraperitoneally administered, calculated for 5-butylpicolinic acid, intraperitoneal): > 1210 mg/kg
LD50 at 48 h ([5]; ip, acute toxicity LD50, intraperitoneally administered, intraperitoneal, two days after administration): > 4000 mg/kg
LD50 at 48 h ([5]; po, acute toxicity LD50, orally administered, calculated for 5-butylpicolinic acid): > 1210 mg/kg
LD50 at 48 h ([5]; po, acute toxicity LD50, orally administered, oral, two days after administration): > 4000 mg/kg
deaths [6]: no case of death was noted

Structure (SMILES): CCCCOc1ccc(C(=O)Oc2c(C)c(C)c3c(c2C)CCC(C)(CCCC(C)CCCC(C)CCCC(C)C)O3)nc1 (racemic) [Example 14, dl-α-tocopheryl 5-butyloxypicolinate]
inhibition in vivo at 10 µmol/kg [1, 10]: 36%
LD50 [2, 11]: > 4000 mg/kg

Structure (SMILES): O=C(O)c1ccc(SCCCCl)cn1 [3-Chloropropyl]
inhibition in vivo at 10 µmol/kg [1, 8]: 48%
LD50 [2, 9]: 179 mg/kg
IC50 ([7]; Table 6): 0.55 µM

Structure (SMILES): Cc1c(C)c2c(c(C)c1OC(=O)c1ccc(CCCCCl)cn1)CCC(C)(CCCC(C)CCCC(C)CCCC(C)C)O2 (racemic) [Example 7, dl-α-tocopheryl 5-(4-chlorobutyl)picolinate]
inhibition in vivo at 10 µmol/kg [1, 10]: 50%
LD50 [2, 11]: > 4000 mg/kg

Structure (SMILES): CCCSc1ccc(C(=O)Oc2c(C)c(C)c3c(c2C)CCC(C)(CCCC(C)CCCC(C)CCCC(C)C)O3)nc1 (racemic) [Example 25, dl-α-tocopheryl 5-propylthiopicolate]
inhibition in vivo at 10 µmol/kg [1, 10]: 31%
LD50 [2, 11]: > 4000 mg/kg

Structure (SMILES): O=C(O)c1ccc(Oc2ccc(Cl)cc2)cn1 [reference compound]
inhibition in vivo at 10 µmol/kg [1, 8]: 56%
LD50 [2, 9]: 123 mg/kg

Structure (SMILES): O=C(O)c1ccc(CCC(Cl)CCl)cn1 (stereo not drawn) [reference compound]
inhibition in vivo at 10 µmol/kg [1, 8]: 53%
LD50 [2, 9]: 41 mg/kg

IC50 ([7]; Table 6): 0.28 µM
Structure (SMILES): O=C(O)c1ccc(SCc2ccccc2)cn1 [Benzyl]

Structure (SMILES): CCCCSc1ccc(C(=O)Oc2c(C)c(C)c3c(c2C)CCC(C)(CCCC(C)CCCC(C)CCCC(C)C)O3)nc1 (racemic) [Example 18, dl-α-tocopheryl 5-butylthiopicolinate]
inhibition in vivo at 10 µmol/kg [1, 10]: 39%
LD50 [2, 11]: > 4000 mg/kg

Structure (SMILES): CCCSc1ccc(C(=O)O)nc1 [n-Propyl, propylthiopicolinic acid]
inhibition in vivo at 10 µmol/kg [1, 8]: 33%
LD50 [2, 9]: 167 mg/kg
IC50 ([7]; Table 6): 0.7 µM

Structure (SMILES): CCCCSc1ccc(C(=O)O)nc1 [Referential Example 1, 5-n-butylthiopicolinic acid]
inhibition in vivo at 10 µmol/kg [1, 8]: 36%
LD50 [2, 14]: 143 mg/kg
IC50 ([7]; Referential Example 1): 0.51 µM

Structure (SMILES): CCCCOc1ccc(C(=O)O)nc1 [reference compound]
inhibition in vivo at 10 µmol/kg [1, 8]: 31%
LD50 [2, 9]: 134 mg/kg

Structure (SMILES): Cc1c(C)c2c(c(C)c1OC(=O)c1ccc(CCC(Cl)CCl)cn1)CCC(C)(CCCC(C)CCCC(C)CCCC(C)C)O2 (racemic) [Example 5, dl-α-tocopheryl 5-(3,4-dichlorobutyl)picolinate]
inhibition in vivo at 10 µmol/kg [1, 10]: 53%
LD50 [2, 11]: > 4000 mg/kg

Structure (SMILES): O=C(O)c1ccc(CCC(Br)CBr)cn1 (stereo not drawn) [5-(3,4-dibromobutyl)picolinic acid, reference compound]
inhibition in vivo at 10 µmol/kg [1, 8]: 50%
LD50 [2, 14]: 110 mg/kg

Structure (SMILES): Cc1c(C)c2c(c(C)c1OC(=O)c1ccc(OCCCCCl)cn1)CCC(C)(CCCC(C)CCCC(C)CCCC(C)C)O2 (racemic) [Example 16, dl-α-tocopheryl 5-(4-chlorobutyloxy)picolinate]
inhibition in vivo at 10 µmol/kg [1, 10]: 40%
LD50 [2, 11]: > 4000 mg/kg

Structure (SMILES): O=C(O)c1ccc(CCCCBr)cn1 [reference compound]
inhibition in vivo at 10 µmol/kg [1, 8]: 49%
LD50 [2, 9]: 46 mg/kg

Structure (SMILES): Cc1c(C)c2c(c(C)c1OC(=O)c1ccc(SCCCCl)cn1)CCC(C)(CCCC(C)CCCC(C)CCCC(C)C)O2 (racemic) [Example 23, dl-α-tocopheryl 5-(3-chloropropylthio)picolinate]
inhibition in vivo at 10 µmol/kg [1, 10]: 43%
LD50 [2, 11]: > 4000 mg/kg

Structure (SMILES): Cc1c(C)c2c(c(C)c1OC(=O)c1ccc(CCC(Br)CBr)cn1)CCC(C)(CCCC(C)CCCC(C)CCCC(C)C)O2 (racemic) [Example 4, dl-α-tocopheryl 5-(3,4-dibromobutyl)picolinate]
inhibition in vivo at 10 µmol/kg [1, 10]: 53%
LD50 [2, 11]: > 4000 mg/kg

Structure (SMILES): O=C(O)c1ccc(Cc2ccccc2)cn1 [reference compound]
inhibition in vivo at 10 µmol/kg [1, 8]: 39%
LD50 [2, 9]: 135 mg/kg

IC50 ([7]; Table 6): 0.55 µM
Structure (SMILES): C=CCSc1ccc(C(=O)O)nc1 [Allyl]

IC50 ([7]; Table 6): 0.21 µM
Structure (SMILES): CC(C)CCSc1ccc(C(=O)O)nc1 [i-Pentyl]

IC50 ([7]; Table 6): 23 µM
Structure (SMILES): CCCCCCCCSc1ccc(C(=O)O)nc1 [n-Octyl]

Structure (SMILES): Cc1c(C)c2c(c(C)c1OC(=O)c1ccc(Oc3ccc(Cl)cc3)cn1)CCC(C)(CCCC(C)CCCC(C)CCCC(C)C)O2 (racemic) [Example 17, dl-α-tocopheryl 5-(4-chlorophenyloxy)picolinate]
inhibition in vivo at 10 µmol/kg [1, 10]: 48%
LD50 [2, 11]: > 4000 mg/kg

Structure (SMILES): CSc1ccc(C(=O)O)nc1 [Methyl]
IC50 ([7]; Table 6): 7.5 µM

Structure (SMILES): O=C(O)c1ccc(OCCCCCl)cn1 [reference compound]
inhibition in vivo at 10 µmol/kg [1, 8]: 43%
LD50 [2, 9]: 172 mg/kg

Structure (SMILES): Cc1c(C)c2c(c(C)c1OC(=O)c1ccc(CCCCBr)cn1)CCC(C)(CCCC(C)CCCC(C)CCCC(C)C)O2 (racemic) [Example 6, dl-α-tocopheryl 5-(4-bromobutyl)picolinate]
inhibition in vivo at 10 µmol/kg [1, 10]: 48%
LD50 [2, 11]: > 4000 mg/kg
